From the NIST ThermoML archive (doi:10.1021/je401120a)
± gives the expanded uncertainty stated by the source.

Test: xn = mol fraction of the nth substance listed
Details: 101 kPa, Liquid; for electrical conductivity: Crison conductimeter (model GLP31); for speed of sound: Pulse-echo method; for mass density: Vibrating tube method

CCC[n+]1ccccc1.F[B-](F)(F)F [1-propylpyridinium tetrafluoroborate] + CO
Details	electrical conductivity [S/m]	mass density [kg/m3]	speed of sound [m/s]	viscosity [mPa·s]
293.15 K, x1 = 0.028	–	846.441 ± 0.38	1164.9 ± 1.2	–
293.15 K, x1 = 0.0313	2.58 ± 0.05	–	–	–
293.15 K, x1 = 0.0365	2.84 ± 0.06	–	–	–
293.15 K, x1 = 0.0422	3.07 ± 0.06	–	–	–
293.15 K, x1 = 0.0505	–	–	–	1.267 ± 0.031
293.15 K, x1 = 0.0577	–	893.625 ± 0.31	1208.5 ± 1.2	–
293.15 K, x1 = 0.0658	3.66 ± 0.07	–	–	–
293.15 K, x1 = 0.0775	3.86 ± 0.08	–	–	–
293.15 K, x1 = 0.0894	4.05 ± 0.08	–	–	–
293.15 K, x1 = 0.0967	–	944.389 ± 0.26	1257.2 ± 1.2	–
293.15 K, x1 = 0.0993	–	–	–	2.52 ± 0.058
293.15 K, x1 = 0.1294	4.37 ± 0.09	–	–	–
293.15 K, x1 = 0.1409	4.4 ± 0.09	–	–	–
293.15 K, x1 = 0.1459	–	995.788 ± 0.22	1311.1 ± 1.3	–
293.15 K, x1 = 0.1703	4.48 ± 0.09	–	–	–
293.15 K, x1 = 0.191	–	–	–	5.73 ± 0.12
293.15 K, x1 = 0.1952	–	1036.49 ± 0.19	1362.9 ± 1.3	–
293.15 K, x1 = 0.2002	4.41 ± 0.09	–	–	–
293.15 K, x1 = 0.2456	4.22 ± 0.08	–	–	–
293.15 K, x1 = 0.2819	3.93 ± 0.08	–	–	–
293.15 K, x1 = 0.291	–	–	–	9.737 ± 0.2
293.15 K, x1 = 0.3213	–	1110.62 ± 0.25	1458 ± 1.4	–
293.15 K, x1 = 0.3507	3.46 ± 0.07	–	–	–
293.15 K, x1 = 0.3918	–	–	–	14.39 ± 0.28
293.15 K, x1 = 0.3937	3.13 ± 0.06	–	–	–
293.15 K, x1 = 0.4002	–	1143.05 ± 0.31	1496.5 ± 1.5	–
293.15 K, x1 = 0.4334	2.77 ± 0.06	–	–	–
293.15 K, x1 = 0.464	2.55 ± 0.05	–	–	–
293.15 K, x1 = 0.4929	–	–	–	20.26 ± 0.39
293.15 K, x1 = 0.4965	–	1173.27 ± 0.43	1541.5 ± 1.6	–
293.15 K, x1 = 0.5398	1.98 ± 0.04	–	–	–
293.15 K, x1 = 0.5988	–	1198.33 ± 0.58	1575.7 ± 1.8	–
293.15 K, x1 = 0.6117	–	–	–	29.28 ± 0.56
293.15 K, x1 = 0.635	1.46 ± 0.029	–	–	–
293.15 K, x1 = 0.6904	–	1216.19 ± 0.73	1598.4 ± 1.9	–
293.15 K, x1 = 0.7331	–	–	–	46.22 ± 0.9
293.15 K, x1 = 0.7918	0.639 ± 0.013	–	–	–
293.15 K, x1 = 0.7923	–	–	–	61.38 ± 1.1
293.15 K, x1 = 0.8011	–	1233.62 ± 0.94	1621.5 ± 2	–
293.15 K, x1 = 0.8425	–	–	–	77.91 ± 2.5
293.15 K, x1 = 0.8824	–	1244.23 ± 1.1	1637.1 ± 2.2	–
293.15 K, x1 = 0.894	0.422 ± 0.008	–	–	–
293.15 K, x1 = 0.8956	–	–	–	99.92 ± 4.8
293.15 K, x1 = 0.9384	0.355 ± 0.007	–	–	–
293.15 K, x1 = 0.94	–	1250.69 ± 1.3	1646.4 ± 2.3	–
293.15 K, x1 = 0.9447	–	–	–	125.55 ± 8
293.15 K, x1 = 1	0.302 ± 0.006	1256.67 ± 1.4	1653.9 ± 2.4	160 ± 13
303.15 K, x1 = 0.028	–	837.96 ± 0.38	1134.5 ± 1.2	–
303.15 K, x1 = 0.0313	2.99 ± 0.06	–	–	–
303.15 K, x1 = 0.0365	3.28 ± 0.07	–	–	–
303.15 K, x1 = 0.0422	3.59 ± 0.07	–	–	–
303.15 K, x1 = 0.0505	–	–	–	0.9388 ± 0.024
303.15 K, x1 = 0.0577	–	885.479 ± 0.31	1179.8 ± 1.2	–
303.15 K, x1 = 0.0658	4.29 ± 0.09	–	–	–
303.15 K, x1 = 0.0775	4.56 ± 0.09	–	–	–
303.15 K, x1 = 0.0894	4.84 ± 0.1	–	–	–
303.15 K, x1 = 0.0967	–	936.347 ± 0.26	1230.9 ± 1.2	–
303.15 K, x1 = 0.0993	–	–	–	1.76 ± 0.042
303.15 K, x1 = 0.1294	5.15 ± 0.1	–	–	–
303.15 K, x1 = 0.1409	5.25 ± 0.11	–	–	–
303.15 K, x1 = 0.1459	–	987.6 ± 0.22	1286.2 ± 1.3	–
303.15 K, x1 = 0.1703	5.38 ± 0.11	–	–	–
303.15 K, x1 = 0.191	–	–	–	3.674 ± 0.083
303.15 K, x1 = 0.1952	–	1028.35 ± 0.19	1339.4 ± 1.3	–
303.15 K, x1 = 0.2002	5.35 ± 0.11	–	–	–
303.15 K, x1 = 0.2456	5.16 ± 0.1	–	–	–
303.15 K, x1 = 0.2819	4.8 ± 0.1	–	–	–
303.15 K, x1 = 0.291	–	–	–	6.277 ± 0.14
303.15 K, x1 = 0.3213	–	1102.55 ± 0.24	1433.2 ± 1.4	–
303.15 K, x1 = 0.3507	4.31 ± 0.09	–	–	–
303.15 K, x1 = 0.3918	–	–	–	8.954 ± 0.18
303.15 K, x1 = 0.3937	3.94 ± 0.08	–	–	–
303.15 K, x1 = 0.4002	–	1135.04 ± 0.31	1477.2 ± 1.5	–
303.15 K, x1 = 0.4334	3.52 ± 0.07	–	–	–
303.15 K, x1 = 0.464	3.16 ± 0.06	–	–	–
303.15 K, x1 = 0.4929	–	–	–	12.66 ± 0.25
303.15 K, x1 = 0.4965	–	1165.53 ± 0.42	1516.7 ± 1.6	–
303.15 K, x1 = 0.5398	2.59 ± 0.05	–	–	–
303.15 K, x1 = 0.5988	–	1190.7 ± 0.57	1550.9 ± 1.8	–
303.15 K, x1 = 0.6117	–	–	–	18.63 ± 0.37
303.15 K, x1 = 0.635	2.01 ± 0.04	–	–	–
303.15 K, x1 = 0.6904	–	1208.71 ± 0.72	1574 ± 1.9	–
303.15 K, x1 = 0.7331	–	–	–	29.44 ± 0.58
303.15 K, x1 = 0.7918	1.04 ± 0.021	–	–	–
303.15 K, x1 = 0.7923	–	–	–	38 ± 0.75
303.15 K, x1 = 0.8011	–	1226.21 ± 0.93	1597.3 ± 2	–
303.15 K, x1 = 0.8425	–	–	–	47.82 ± 0.95
303.15 K, x1 = 0.8824	–	1236.99 ± 1.1	1612.7 ± 2.2	–
303.15 K, x1 = 0.894	0.702 ± 0.014	–	–	–
303.15 K, x1 = 0.8956	–	–	–	59.95 ± 1.1
303.15 K, x1 = 0.9384	0.625 ± 0.013	–	–	–
303.15 K, x1 = 0.94	–	1243.5 ± 1.2	1622.4 ± 2.3	–
303.15 K, x1 = 0.9447	–	–	–	73.49 ± 2.1
303.15 K, x1 = 1	0.516 ± 0.01	1249.54 ± 1.4	1629.8 ± 2.4	90.75 ± 3.8
